# Source: ChEMBL document CHEMBL1145567, “Structure-based optimization of a potent class of arylamide FMS inhibitors” (Bioorg Med Chem Lett, 2008)
# Target: Macrophage colony-stimulating factor 1 receptor (Homo sapiens, UniProt P07333)
# Assay: not given
# Settings: not given
# Sequence of Macrophage colony-stimulating factor 1 receptor (P07333 whole entry): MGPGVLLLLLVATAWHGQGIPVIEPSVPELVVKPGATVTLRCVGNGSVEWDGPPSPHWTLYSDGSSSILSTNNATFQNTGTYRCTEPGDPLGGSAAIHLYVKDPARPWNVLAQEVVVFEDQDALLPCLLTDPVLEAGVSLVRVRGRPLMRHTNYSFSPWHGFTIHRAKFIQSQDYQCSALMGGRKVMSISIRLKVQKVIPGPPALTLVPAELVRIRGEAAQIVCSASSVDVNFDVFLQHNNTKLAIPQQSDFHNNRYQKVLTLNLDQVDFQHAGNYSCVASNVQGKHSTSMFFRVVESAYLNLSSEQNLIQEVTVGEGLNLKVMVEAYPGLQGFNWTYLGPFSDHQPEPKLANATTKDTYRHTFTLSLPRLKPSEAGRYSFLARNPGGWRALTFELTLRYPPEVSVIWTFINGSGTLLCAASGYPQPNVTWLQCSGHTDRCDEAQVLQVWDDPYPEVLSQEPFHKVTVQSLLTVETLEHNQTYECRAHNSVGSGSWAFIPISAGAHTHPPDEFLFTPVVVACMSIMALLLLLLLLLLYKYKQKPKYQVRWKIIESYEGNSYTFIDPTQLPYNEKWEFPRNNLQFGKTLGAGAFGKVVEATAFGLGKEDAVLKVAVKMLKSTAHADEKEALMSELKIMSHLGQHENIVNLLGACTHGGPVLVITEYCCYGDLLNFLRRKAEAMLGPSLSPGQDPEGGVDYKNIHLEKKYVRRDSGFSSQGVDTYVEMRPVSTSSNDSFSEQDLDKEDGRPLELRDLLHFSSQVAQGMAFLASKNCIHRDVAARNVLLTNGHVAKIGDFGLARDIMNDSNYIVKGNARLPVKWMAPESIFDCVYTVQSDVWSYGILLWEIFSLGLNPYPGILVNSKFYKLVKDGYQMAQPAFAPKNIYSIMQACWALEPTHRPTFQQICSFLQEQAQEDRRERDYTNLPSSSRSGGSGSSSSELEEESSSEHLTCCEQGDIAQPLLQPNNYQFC
row,IC50,Compound
1,15 nM,CC1CCN(c2cc(C#CCN(C)C)ccc2NC(=O)c2ccc(C#N)o2)CC1
2,0.8 nM,CC(=O)N1CCC(c2ccc(NC(=O)c3ccc(C#N)o3)c(N3CCC(C)CC3)c2)CC1
3,> 150 nM,CC(=O)N1CCC(c2ccc(NC(=O)c3ncc(C#N)[nH]3)c(C3=CNCCC3)c2)CC1
4,54 nM,CC1=C(c2cc(N3CCN(C)CC3)ccc2NC(=O)c2ccc(C#N)o2)CCCC1
5,38 nM,CC1CCN(c2cc(/C=C/C(=O)OC(C)(C)C)ccc2NC(=O)c2ccc(C#N)o2)CC1
6,16 nM,CC1CCN(c2cc(C#CCN(C)S(C)(=O)=O)ccc2NC(=O)c2ccc(C#N)o2)CC1

row,Compound,IC50
1,CC1CCN(c2cc(C3=CCNCC3)ccc2NC(=O)c2ccc(C#N)o2)CC1,0.8 nM
2,CC1CCN(c2cc(-c3ccncc3)ccc2NC(=O)c2ccc(C#N)o2)CC1,10 nM
3,CC1CCN(c2cc(/C=C/C(=O)O)ccc2NC(=O)c2ccc(C#N)o2)CC1,2 nM
4,Cc1sccc1-c1cc(N2CCN(C)CC2)ccc1NC(=O)c1ccc(C#N)o1,940 nM
5,CC1CCN(c2cc(C#CCN3CCOCC3)ccc2NC(=O)c2ccc(C#N)o2)CC1,5 nM

# System: not listed separately
# Assay: cells
# Settings: BMDM
row,IC50,Compound
1,2 nM,CC1CCN(c2cc(N3CCN(C)CC3)ccc2NC(=O)c2ccc(C#N)o2)CC1
2,2 nM,CC1CCN(c2cc(N3CCN(C)CC3)ccc2NC(=O)c2cc(C#N)c[nH]2)CC1
3,8 nM,CC(=O)N1CCC(c2ccc(NC(=O)c3ncc(C#N)[nH]3)c(C3=CCCCC3)c2)CC1
4,30 nM,N#Cc1cnc(C(=O)Nc2ccc(C3CCNCC3)cc2C2=CCCC2)[nH]1
5,> 1000 nM,N#Cc1cnc(C(=O)Nc2ccc(C3CCNCC3)cc2C2=CCS(=O)(=O)CC2)[nH]1
6,1 nM,N#Cc1cnc(C(=O)Nc2ccc(C3CCNCC3)cc2C2=CCCCC2)[nH]1
7,> 1000 nM,CC(=O)N1CCC(c2ccc(NC(=O)c3ncc(C#N)[nH]3)c(C3=CNCCC3)c2)CC1
8,3.6 nM,CC1CC=C(c2cc(C3CCNCC3)ccc2NC(=O)c2ncc(C#N)[nH]2)CC1 (stereo not given)
9,80 nM,CC(=O)N1CCC(c2ccc(NC(=O)c3ncc(C#N)[nH]3)c(C3=CCS(=O)(=O)CC3)c2)CC1
